# Measured values: patent US12458631B2, “Use of dihydroberberine or its derivatives for anti-glycation” (NANJING NUTRABUILDING BIO-TECH CO., LTD., priority 2022, dated 2025)
# Key:
# Format in all cases: in vivo, Kunming mice
# MDA = MDA content in skin of D-galactose-injected mice (kit/ELISA); settings: group 3, DHB 200 mg/kg s.c., 14th week
# Experimental: (§1) Six-week-old, male, Kunming mice, weighed about 30±2 g, were obtained from Cavens Lab Animal (Changzhou, China) and housed in a controlled room (25±2° C., 60% relative humidity, 12 h light/dark cycle) with free access to water and standard laboratory diet. After an acclimation period (1 week), mice were randomly divided into 3 groups of 9 animals. Choose the mice's back skin as the experimental observation area, use a razor to shave off the back hair of the mice. Apply 5% sodium sulfide solution to the back of the mice to remove the hair. Then all mice were injected subcutaneously with the same volume of D-galactose (1000 mg/kg), once a day for 8 weeks. During the entire process of the experiment, the daily food intake and weight of mice were recorded every day, and the D-galactose injection dose was adjusted following the weight change. The 3 groups of 9 animals were (1) non-supplement group (Con, Group 1); (2) DHB supplement group (DHB, 100 mg/kg, Group 2); (3) DHB supplement group (DHB, 200 mg/kg, Group 3). […] The levels of H2O2, MDA, SOD, CAT, GSH, and GSH-Px in the skin were detected with relative kits as reference. […] Quantitative polymerase chain reaction (QPCR) and western blot methods were used to measure the expression of MMP-1 in the skin.
# CAT = CAT activity in skin of D-galactose-injected mice; settings: DHB groups (100 and 200 mg/kg s.c.), 14th week
# Experimental: as §1
# GSH = GSH activity in skin of D-galactose-injected mice; settings: DHB groups (100 and 200 mg/kg s.c.), 14th week
# Experimental: as §1
# SOD = SOD activity in skin of D-galactose-injected mice; settings: 14th week
# Experimental: as §1
# GSH-Px = GSH-Px activity in skin of D-galactose-injected mice; settings: 14th week
# Experimental: as §1
# skin collagen fibers = experiment: Masson staining, quantification of skin collagen fibers in D-galactose-injected mice; settings: 14th week
# Experimental: Six-week-old, male, Kunming mice, weighed about 30±2 g, were obtained from Cavens Lab Animal (Changzhou, China) and housed in a controlled room (25±2° C., 60% relative humidity, 12 h light/dark cycle) with free access to water and standard laboratory diet. After an acclimation period (1 week), mice were randomly divided into 3 groups of 9 animals. Choose the mice's back skin as the experimental observation area, use a razor to shave off the back hair of the mice. Apply 5% sodium sulfide solution to the back of the mice to remove the hair. Then all mice were injected subcutaneously with the same volume of D-galactose (1000 mg/kg), once a day for 8 weeks. During the entire process of the experiment, the daily food intake and weight of mice were recorded every day, and the D-galactose injection dose was adjusted following the weight change. The 3 groups of 9 animals were (1) non-supplement group (Con, Group 1); (2) DHB supplement group (DHB, 100 mg/kg, Group 2); (3) DHB supplement group (DHB, 200 mg/kg, Group 3). […] To further examine the content of skin collagen fibers, this was determined by Masson's staining. Then quantitation of skin epidermis and dermis, and collagen were calculated based on the results of observation.
# H2O2 = H2O2 content in skin homogenate of D-galactose-injected mice; settings: 14th week
# Experimental: as §1
# MMP-1 = MMP-1 expression in skin (QPCR and western blot) of D-galactose-injected mice; settings: 14th week
# Experimental: as §1
# [1] = system: skin epidermis and dermis; experiment: H&E staining, quantitation of skin epidermis and dermis in D-galactose-injected mice; settings: 14th week
# Experimental: Six-week-old, male, Kunming mice, weighed about 30±2 g, were obtained from Cavens Lab Animal (Changzhou, China) and housed in a controlled room (25±2° C., 60% relative humidity, 12 h light/dark cycle) with free access to water and standard laboratory diet. After an acclimation period (1 week), mice were randomly divided into 3 groups of 9 animals. Choose the mice's back skin as the experimental observation area, use a razor to shave off the back hair of the mice. Apply 5% sodium sulfide solution to the back of the mice to remove the hair. Then all mice were injected subcutaneously with the same volume of D-galactose (1000 mg/kg), once a day for 8 weeks. During the entire process of the experiment, the daily food intake and weight of mice were recorded every day, and the D-galactose injection dose was adjusted following the weight change. The 3 groups of 9 animals were (1) non-supplement group (Con, Group 1); (2) DHB supplement group (DHB, 100 mg/kg, Group 2); (3) DHB supplement group (DHB, 200 mg/kg, Group 3). Mice in group 2 and group 3 were injected subcutaneously (s.c.) into their back skins with the corresponding concentrations of DHB before each major meal once daily for 6 weeks. All mice were sacrificed following 6 weeks at the end of the experiment. The skin tissue was divided into three parts, the first part was stored at −80° C. until assays were performed, the second part was immediately collected, weighed and homogenized (4° C.; 3500 rpm for 15 min) for biochemical and histological analyses, and the third part was fixed in 10% formalin until further use. Hematoxylin-eosin staining (H&E) and Masson staining were performed on skin samples. Skins were fixed in 10% formalin 48 h at room temperature and paraffin-embedded afterward. With H&E staining, skins were sliced into 4 μm, dehydrated of gradient ethanol, and stained with hematoxylin and eosin. For Masson staining, sliced skins were stained with a Masson kit as the instruction said. H&E staining to observe the skin epidermis and dermis structure change and analyze stained collagen fibers by Image-Pro Plus 6.0 in the perspective of 400 times to detect the percentage of collagen fibers area. To further examine the content of skin collagen fibers, this was determined by Masson's staining. Then quantitation of skin epidermis and dermis, and collagen were calculated based on the results of observation.
# [2] = Fasting blood glucose level by glucometer in D-galactose-injected mice; settings: for blood glucose level decreased compared to the non-supplement group: 14th week
# Experimental: Six-week-old, male, Kunming mice, weighed about 30±2 g, were obtained from Cavens Lab Animal (Changzhou, China) and housed in a controlled room (25±2° C., 60% relative humidity, 12 h light/dark cycle) with free access to water and standard laboratory diet. After an acclimation period (1 week), mice were randomly divided into 3 groups of 9 animals. Choose the mice's back skin as the experimental observation area, use a razor to shave off the back hair of the mice. Apply 5% sodium sulfide solution to the back of the mice to remove the hair. Then all mice were injected subcutaneously with the same volume of D-galactose (1000 mg/kg), once a day for 8 weeks. During the entire process of the experiment, the daily food intake and weight of mice were recorded every day, and the D-galactose injection dose was adjusted following the weight change. The 3 groups of 9 animals were (1) non-supplement group (Con, Group 1); (2) DHB supplement group (DHB, 100 mg/kg, Group 2); (3) DHB supplement group (DHB, 200 mg/kg, Group 3). Mice in group 2 and group 3 were injected subcutaneously (s.c.) into their back skins with the corresponding concentrations of DHB before each major meal once daily for 6 weeks. When all mice were on fasting, collect approximately 10 μL of blood by the tail nick for 3 times, at the beginning of the trial (0 week), after the D-galactose injection (8th week), and at the end of the trial (14th week). Use the glucometer to measure the glucose level.
# [3] = DHB groups (100 and 200 mg/kg s.c.)
# [4] = DHB supplemented groups (100 and 200 mg/kg s.c.)
compound,measurement,setting,value
"COc1ccc2c(c1OC)CN1CCc3cc4c(cc3C1=C2)OCO4 [DHB, Dihydroberberine]",content of MDA lower than in the control group,MDA,63%
same,CAT activity after DHB supplementation,CAT,significantly improved
same,GSH activity after DHB supplementation,GSH,significantly improved
same,SOD activity after DHB supplementation,SOD; [3],significantly improved
same,SOD increase compared to non-supplementation group,"SOD; group 3, DHB 200 mg/kg s.c.",about 2.9 times
same,GSH-Px activity after DHB supplementation,GSH-Px; [3],significantly improved
same,GASH-Px increase compared to non-supplementation group,"GSH-Px; group 3, DHB 200 mg/kg s.c.",~1.8 times
same,contents of collagen in the skin tissue compared with the control group,skin collagen fibers; DHB supplement groups (100 and 200 mg/kg s.c.),significantly higher
same,"content of collagen in the skin tissue, higher than control group","skin collagen fibers; higher dose group, DHB 200 mg/kg s.c.",2.2 times
same,H2O2 content decreased compared to the non-supplement group,"H2O2; group 2, DHB 100 mg/kg s.c.",about 33%
same,H2O2 content decreased compared to the non-supplement group,"H2O2; group 3, DHB 200 mg/kg s.c.",~58%
same,MMP-1 expression reduced compared to non-supplement group,"MMP-1; group 2, DHB 100 mg/kg s.c.",about 23%
same,MMP-1 expression reduced compared to non-supplement group,"MMP-1; group 3, DHB 200 mg/kg s.c.",about 51%
same,dermal thickness vs control group,[1]; [4],significant thicker
same,epidermal thickness vs control group,[1]; [4],significant thicker
same,prevention or reduction of dermal thickness decrease,"[1]; group 3, DHB 200 mg/kg s.c.",78%
same,prevention or reduction of epidermal thickness decrease,"[1]; group 3, DHB 200 mg/kg s.c.",72%
same,blood glucose levels after supplementation,[2]; [3],decreased significantly
same,blood glucose level decreased compared to the non-supplement group,"[2]; group 2, DHB 100 mg/kg s.c. once daily for 6 weeks",about 39%
same,blood glucose level decreased compared to the non-supplement group,"[2]; group 3, DHB 200 mg/kg s.c. once daily for 6 weeks",~44%
